Measurements: ChEMBL document CHEMBL1147414, “Synthesis of galactopyranosyl amino alcohols as a new class of antitubercular and antifungal agents” (2004)
Values after ≈ are worked out from the molar mass of the structure shown.

Columns and labels:
Sporothrix schenckii = assay: Minimum inhibitory concentration against Sporothrix schenckii
Aspergillus fumigatus = assay: Minimum inhibitory concentration against Aspergillus fumigatus; format: functional
[1] = system: Mycobacterium tuberculosis; assay: Minimum inhibitory concentration against Mycobacterium tuberculosis; format: functional
Trichophyton benhamiae = assay: Minimum inhibitory concentration against Trichophyton mentagrophytes; format: functional, Arthroderma benhamiae
Candida parapsilosis = assay: Minimum inhibitory concentration against Candida parapsilosis; format: functional; settings: Lodderomyces parapsilosis
Candida albicans = assay: Minimum inhibitory concentration against Candida albicans; format: functional
Cryptococcus neoformans = assay: Minimum inhibitory concentration against Cryptococcus neoformans; format: functional
[2] = system: Mycobacterium tuberculosis; assay: In vito growth of Mycobacterium tuberculosis VA-101 strain after 6 weeks; […] colonies; format: functional, organism-based
[3] = system: Mycobacterium tuberculosis; assay: In vito growth of Mycobacterium tuberculosis BC-426 strain after 6 weeks; - indicates no growth; format: functional, organism-based
[4] = system: Mycobacterium tuberculosis; assay: In vito growth of Mycobacterium tuberculosis BC-243 strain after 6 weeks; - indicates no growth; format: functional, organism-based
[5] = system: Mycobacterium tuberculosis; assay: In vito growth of Mycobacterium tuberculosis BC-248 strain after 6 weeks; - indicates no growth; format: functional, organism-based
[6] = system: Mycobacterium tuberculosis; assay: In vito growth of Mycobacterium tuberculosis BC-437 strain after 6 weeks; - indicates no growth; format: functional, organism-based
[7] = system: Mycobacterium tuberculosis; assay: In vito growth of Mycobacterium tuberculosis BC-248 strain after 6 weeks; + indicates 1-20 colonies; format: functional, organism-based

SMILES | MIC (Sporothrix schenckii) [µg/mL] | MIC (Aspergillus fumigatus) [µg/mL] | MIC [1] [µg/mL] | MIC (Trichophyton benhamiae) [µg/mL] | MIC (Candida parapsilosis) [µg/mL] | MIC (Candida albicans) [µg/mL] | MIC (Cryptococcus neoformans) [µg/mL] | Growth [2] | Growth [3] | Growth [4] | Growth [5] | Growth [6] | Growth [7]
CC1(C)O[C@@H]2OC(COCC(O)CNCCCCCCCNCC(O)COCC3O[C@@H]4OC(C)(C)O[C@@H]4[C@H]4OC(C)(C)O[C@@H]34)[C@H]3OC(C)(C)O[C@H]3[C@@H]2O1 (stereo partly specified) | > 50 | > 50 | > 50 | 50 (≈ 65.5 µM) | > 50 | > 50 | 50 (≈ 65.5 µM) | – | – | – | – | – | –
CC1(C)O[C@H]2OC(COCC(O)CNCc3ccco3)[C@@H]3OC(C)(C)O[C@@H]3[C@H]2O1 (stereo partly specified) | > 50 | > 50 | > 50 | 50 (≈ 121 µM) | > 50 | > 50 | 25 (≈ 60.5 µM) | – | – | – | – | – | –
CCCCCCCCCCCCCCCCNCC(O)COCC1O[C@@H]2OC(C)(C)O[C@@H]2[C@H]2OC(C)(C)O[C@@H]12 (stereo partly specified) | 25 (≈ 44.8 µM) | 25 (≈ 44.8 µM) | 12.5 (≈ 22.4 µM) | 12.5 (≈ 22.4 µM) | 25 (≈ 44.8 µM) | 25 (≈ 44.8 µM) | 6.25 (≈ 11.2 µM) | – | – | – | – | – | –
CC1(C)O[C@H]2OC(COCC(O)CN3CCOCC3)[C@@H]3OC(C)(C)O[C@@H]3[C@H]2O1 (stereo partly specified) | > 50 | > 50 | > 50 | 50 (≈ 124 µM) | > 50 | > 50 | 25 (≈ 62 µM) | – | – | – | – | – | –
CC1(C)O[C@H]2OC(COCC(O)CNCc3ccccc3)[C@@H]3OC(C)(C)O[C@@H]3[C@H]2O1 (stereo partly specified) | > 50 | > 50 | > 50 | 50 (≈ 118 µM) | > 50 | > 50 | 25 (≈ 59 µM) | – | – | – | – | – | –
CCCCCCCCCCCCNCC(O)COCC1O[C@@H]2OC(C)(C)O[C@@H]2[C@H]2OC(C)(C)O[C@@H]12 (stereo partly specified) | 6.25 (≈ 12.5 µM) | 6.25 (≈ 12.5 µM) | 12.5 (≈ 24.9 µM) | 6.25 (≈ 12.5 µM) | 25 (≈ 49.8 µM) | 12.5 (≈ 24.9 µM) | 1.56 (≈ 3.11 µM) | – | – | – | – | – | –
CCCCCCCC/C=C/CCCCCCCCNCC(O)COCC1O[C@@H]2OC(C)(C)O[C@@H]2[C@H]2OC(C)(C)O[C@@H]12 (stereo partly specified) | 50 (≈ 85.6 µM) | 50 (≈ 85.6 µM) | 12.5 (≈ 21.4 µM) | 25 (≈ 42.8 µM) | > 50 | 50 (≈ 85.6 µM) | 6.25 (≈ 10.7 µM) | – | – | – | – | – | –
CC1(C)O[C@@H]2OC(COCC(O)CNCCCNCC(O)COCC3O[C@@H]4OC(C)(C)O[C@@H]4[C@H]4OC(C)(C)O[C@@H]34)[C@H]3OC(C)(C)O[C@H]3[C@@H]2O1 (stereo partly specified) | > 50 | > 50 | > 50 | 50 (≈ 70.7 µM) | > 50 | > 50 | 25 (≈ 35.4 µM) | – | – | – | – | – | –
CC1(C)O[C@@H]2OC(COCC(O)CNCCCCCCCCCCNCC(O)COCC3O[C@@H]4OC(C)(C)O[C@@H]4[C@H]4OC(C)(C)O[C@@H]34)[C@H]3OC(C)(C)O[C@H]3[C@@H]2O1 (stereo partly specified) | > 50 | > 50 | > 50 | 50 (≈ 62.1 µM) | > 50 | > 50 | 12.5 (≈ 15.5 µM) | – | – | – | – | – | –
C[C@@H]1CN(c2c(F)c(N)c3c(=O)c(C(=O)O)cn(C4CC4)c3c2F)C[C@H](C)N1 | – | – | – | – | – | – | – | 1-20 colonies | No growth | No growth | No growth | No growth | –
CC1(C)O[C@H]2OC(COCC(O)CN3CCCC3)[C@@H]3OC(C)(C)O[C@@H]3[C@H]2O1 (stereo partly specified) | > 50 | > 50 | > 50 | 50 (≈ 129 µM) | > 50 | > 50 | 25 (≈ 64.5 µM) | – | – | – | – | – | –
CC[C@@H](CO)NCCN[C@@H](CC)CO [ETHAMBUTOL] | – | – | 3.25 (≈ 15.9 µM) | – | – | – | – | – | – | – | – | – | –
CC1(C)O[C@@H]2OC(COCC(O)CNCCCCCCCCCCCCNCC(O)COCC3O[C@@H]4OC(C)(C)O[C@@H]4[C@H]4OC(C)(C)O[C@@H]34)[C@H]3OC(C)(C)O[C@H]3[C@@H]2O1 (stereo partly specified) | > 50 | > 50 | 1.56 (≈ 1.87 µM) | 50 (≈ 60 µM) | > 50 | > 50 | 12.5 (≈ 15 µM) | – | – | – | – | – | 1-20 colonies
CC1(C)O[C@@H]2OC(COCC(O)CNCCCCCCCCCNCC(O)COCC3O[C@@H]4OC(C)(C)O[C@@H]4[C@H]4OC(C)(C)O[C@@H]34)[C@H]3OC(C)(C)O[C@H]3[C@@H]2O1 (stereo partly specified) | > 50 | > 50 | > 50 | 50 (≈ 63.2 µM) | > 50 | > 50 | 25 (≈ 31.6 µM) | – | – | – | – | – | –
CC(=O)N1CCN(c2ccc(OC[C@H]3CO[C@](Cn4ccnc4)(c4ccc(Cl)cc4Cl)O3)cc2)CC1 [KETOCONAZOLE] | 0.5 (≈ 0.941 µM) | 0.25 (≈ 0.47 µM) | – | 0.25 (≈ 0.47 µM) | 0.12 (≈ 0.226 µM) | 0.001 (≈ 0.00188 µM) | 0.12 (≈ 0.226 µM) | – | – | – | – | – | –
CC1(C)O[C@H]2OC(COCC(O)CN3CCN(c4cccc(Cl)n4)CC3)[C@@H]3OC(C)(C)O[C@@H]3[C@H]2O1 (stereo partly specified) | > 50 | > 50 | > 50 | 25 (≈ 48.6 µM) | > 50 | > 50 | 12.5 (≈ 24.3 µM) | – | – | – | – | – | –
CC1(C)O[C@H]2OC(COCC(O)CN3CCCCC3)[C@@H]3OC(C)(C)O[C@@H]3[C@H]2O1 (stereo partly specified) | > 50 | > 50 | > 50 | 50 (≈ 125 µM) | > 50 | > 50 | 25 (≈ 62.3 µM) | – | – | – | – | – | –
